Laboratory results published in US20070225245A1, “Viral vector driven mutant bacterial cytosine deaminase gene and uses thereof” (priority 1998, published 2007).
Converted amounts (≈) assume the structure as drawn.

Tests used:
[1] = test system: intracranial U251MG gliomas; assay: Survival, intracranial glioma, intratumoral Ad and systemic 5-FC; format: in vivo, SCID mice; conditions: no virus/5-FC
Description: U87MG and D54MG cells (5×10^5) were stereotactically injected into the right frontal cortex of SCID mice. Tumors were established for 5 days before intratumoral injection of AdCMVCD (10^8 or 10^9 pfu/mouse). Mice were then treated IP with 5-FC (500 mg/kg bid) on days 2-9 post infection and monitored for survival. Kaplan-Meier survival curves and median and 20% survival values were calculated by standard methods.
Additional experiments were performed on intracranial tumors derived from all three glioma models. […] Similar results were obtained with SCID mice bearing intracranial U87MG gliomas (AdE1ACD/5-FC 84 days, AdE1ACD/saline 49 days, no virus/5-FC 57 days, p<0.01; Table II and Table 12).

[2] = test system: BXPC-3 pancreatic tumor cells transfected with AdCMVCD; assay: MRS of 5-FC to 5-FU conversion in vitro; format: cell-based, human; conditions: after 120 minutes; 3.8 mM 5-FC
Description: In vitro models of molecular chemotherapy were developed using the AdCMVCD cytosine deaminase toxin gene for the transfection of both human pancreatic and colon cancer cell lines (BXPC-3, WiDR, LS174T). […] In this study, an in vitro treatment model was proposed using 3×10^6 BXPC-3 pancreatic tumor cells transfected at a MOI of 100 with AdCMVCD. These cells were then examined by MRS at 0, 2, 6 and 24 hours for conversion of 5-FC to 5-FU.
Initial studies have shown the sensitivity of fluorine spectroscopy by its ability to detect 3.8 mM 5-FC when initially added to transfected BXPC-3 cells. […] However, after 120 minutes, the signal for 5-FC had dropped to 50% of its original intensity and the signal for 5-FU had increased to approximately 40% of the original 5-FC signal indicating conversion of 5-FC to 5-FU.

[3] = test system: human cell lines derived from gliomas, prostate, colon, and pancreatic carcinomas; assay: 5-FU toxicity, panel of cell lines; format: cell-based; conditions: range over 12 cell lines
Description: Tumor cells (5×10^4) were plated in 96 well plates and allowed to adhere overnight. Cells were then incubated continuously in the presence of increasing concentrations of 5-FU (0-200 μg/ml) and assayed for toxicity using an MTS assay (Promega, Madison Wis.) after 5-days. ICx values were calculated as previously described. U251MG glioma cells were as sensitive to 5-FU as LS174T and WiDR colon carcinoma cells, while D54MG, U87MG and U118MG glioma cells and AsPC-1 pancreatic carcinoma cells were 3-fold less sensitive (Table 2).

[4] = test system: Neuro-2a murine neuroblastoma cells; assay: HSV replication in vitro, plaque titration on Vero cells; format: cell-based; conditions: 50 μM 5-FU in growth medium; first evident at 48 h post-infection
Description: M012 replication was compared to R3659 replication over time in murine Neuro-2a tumor cells at both high (5.0) and low (0.1) MOI. Infected cells were grown in either growth medium alone or growth medium containing 5-FC (500 μM) or 5-FU (50 μM) by determining viral titers at 12, 24, 48, 72, and 96 h post-infection in the presence or absence of 500 μM 5-FC or 50 μM 5-FU. Virus recovery at the different time points was determined by titering on Vero cells. Experiments were performed in duplicate. Inhibition was most significant at high MOI, with P=0.002.
To establish replication competence of M012 in murine tumor cell lines in vitro, Neuro-2a murine neuroblastoma cells were infected with either the parent Dg134.5 HSV, R3659, or M012 using a low (0.1) or high (5.0) MOI. To determine if high concentrations of 5-FC might interfere with HSV replication, cells were incubated in the presence of either 500 μM 5-FC or 50 μM 5-FU, or media alone and infected cells were harvested at 12, 24, 48, 72, and 96 h post-infection. Total PFU recovered at each time point was determined by plaque titration on Vero cells (FIG. 9). At both MOI, M012 replication in DMEM alone was similar to its parent virus, R3659. […] The addition of 5-FC to the growth medium following infection inhibited M012 replication, but had no effect on R3659 replication at either MOI. […]

U87MG = assay: Crystal violet cytotoxicity assay (5-FU, or 5-FC after Ad infection); format: cell-based; conditions: Homo sapiens, U-87 MG, 120 h, 5 days
Excerpt: (§1) Twenty-four hours later cells were infected with AdbCD-D314A or AdbCDwt at various MOI.

PANC-1 = assay: as above; format: cell-based; conditions: Homo sapiens, 120 h, 5 days
Excerpt: as §1

D54MG = assay: as above; format: cell-based; conditions: Homo sapiens, 120 h, 5 days
Excerpt: as §1

Panc2.03 = assay: as above; format: cell-based; conditions: Homo sapiens, Panc203, 120 h, 5 days
Excerpt: as §1

U251MG = assay: as above; format: cell-based; conditions: Homo sapiens, U-251, 120 h, 5 days
Excerpt: as §1

BXPC-3 = assay: as above; format: cell-based; conditions: Homo sapiens, 120 h, 5 days
Excerpt: as §1

MIA PaCa-2 = assay: as above; format: cell-based; conditions: Homo sapiens, 120 h, 5 days
Excerpt: as §1

S2-VP10 = assay: as above; format: cell-based; conditions: Homo sapiens, 120 h, 5 days
Excerpt: as §1

S2-013 = assay: as above; format: cell-based; conditions: Homo sapiens, 120 h, 5 days
Excerpt: as §1

Compound	median survival [1] [days]	5-FC MRS signal, % of its original intensity [2] [%]	IC50 [3] [µg/mL]	reduction in replication of M012 or R3659 [4]	5-FU MRS signal, % of the original 5-FC signal [2]	IC50 (U87MG) [µg/mL]	IC50 (PANC-1) [µg/mL]	IC50 (D54MG) [µg/mL]	IC50 (Panc2.03) [µg/mL]	IC50 (U251MG) [µg/mL]	IC50 (BXPC-3) [µg/mL]	IC50 (MIA PaCa-2) [µg/mL]	IC50 (S2-VP10) [µg/mL]	IC50 (S2-013) [µg/mL]
Nc1nc(=O)[nH]cc1F [5-FC, 5-fluorocytosine]	23	50	–	–	–	–	–	–	–	–	–	–	–	–
O=c1[nH]cc(F)c(=O)[nH]1 [5-FU, 5-fluorouracil]	–	–	0.04 to 4.97 (≈ 0.308 to 38.2 µM)	1.0-2.0 log	approximately 40%	0.9 ± 0.5 (≈ 6.92 µM)	1.5 ± 0.5 (≈ 11.5 µM)	3.9 ± 0.8 (≈ 30 µM)	12.4 (≈ 95.3 µM)	2.5 ± 1.2 (≈ 19.2 µM)	0.1 (≈ 0.769 µM)	1.4 (≈ 10.8 µM)	2.7 ± 0.1 (≈ 20.8 µM)	0.5 ± 0.1 (≈ 3.84 µM)
